Values quoted from earlier work, collected in publication PMC3848067 (Acta Naturae, 2013).
Where two headings read alike, the source gives them in different places.

How the values were obtained:
[1] = set-up: method as in PMID 20380483; settings: after oral administration of the named drug; cited from earlier work
[2] = dogs, value for the tested compound (2 or its metabolite AZT), cited from earlier work
[3] = rabbits, single oral dose of the named compound equivalent to 200 mg of AZT/kg; cited from earlier work
[4] = metabolite AZT after oral phosphonate 2, 20 mg/kg, rats; cited from earlier work
[5] = dogs, cited from earlier work; for tmax of AZT: oral phosphonate 2 capsules 600 mg daily
[6] = cited from earlier work
MT-4 cells = settings: MT-4 cell culture; cited from earlier work
HIV infection = settings: cited from earlier work
HIV = settings: cited from earlier work
mice = settings: intraperitoneal administration to mice; cited from earlier work
HIV-1 [7] = settings: MT-4 cell culture; cited from earlier work
HIV-1 [8] = settings: MT-4, CEM-SS and CEM-X174 cell lines; cited from earlier work
HIV-1 [9] = settings: cell cultures C8 and JM; cited from earlier work
IIIB strain of HIV = IIIB strain of HIV in blood mononuclear cells; cited from earlier work
HXB2 strain of HIV = HXB2 strain of HIV in blood mononuclear cells; cited from earlier work
[10] = cited from earlier work; remark: listed apart in the source
[11] = canine whole blood at 37°С; cited from earlier work
[12] = single oral dose of capsules of 2, 10 mg/kg
[13] = single oral dose of capsules of 2, 20 mg/kg
[14] = single oral dose of capsules of 2, 40 mg/kg
[15] = compound 2 orally 600 mg for 7 days, 24 h intervals, day 7

In the case of `Cc1cn([C@H]2C[C@H](N=[N+]=[N-])[C@@H](CO)O2)c(=O)[nH]c1=O` [AZT, 3’-azido-3’-deoxythymidine], the “Cmax of AZT” value [1] is listed as ~1200 ng/mL, the “tmax of AZT” value [1] is listed as 0.5 to 0.8 h and the Cmax [2, 12] is listed as 360 ± 240 ng/mL. For the same compound, the Cmax/AUC [2, 12] was 0.119 ± 0.033 h⁻¹, the MRT [2, 12] was 8.90 ± 5.34 h and the t1/2 [2, 12] was 4.57 ± 1.46 h. For the same compound, the tmax [2, 12] was 4.7 ± 1.0 h, the Cmax [2, 13] was 690 ± 490 ng/mL and the Cmax/AUC [2, 13] was 0.107 ± 0.023 h⁻¹. For the same compound, the MRT [2, 13] was 12.0 ± 2.6 h, the t1/2 [2, 13] was 9.7 ± 4.3 h and the tmax [2, 13] was 5.0 ± 1.7 h. For the same compound, the Cmax [2, 14] was 980 ± 560 ng/mL, the Cmax/AUC [2, 14] was 0.100 ± 0.016 h⁻¹ and the MRT [2, 14] was 12.2 ± 1.4 h. The t1/2 [2, 14] was 7.0 ± 2.5 h, the tmax [2, 14] was 6.0 ± 1.3 h and the “AUC of AZT” value [3] was 88500 ± 25500 ng·h/mL. For the same compound, the “Cmax of AZT” value [3] was 39640 ± 4240 ng/mL, the “MRT of AZT” value [3] was 2.10 ± 0.30 h and the “t1/2 of AZT” value [3] was 2.13 ± 0.71 h. The “tmax of AZT” value [3] was 1.0 h, the “AUC 0-t” value [4] was 2270 ng·h/mL and the MRT [4] was 6.54 h. For the same compound, the tmax [4] was 4 h, the Сmax [4] was 0.4 mg/L and the “С0 of AZT in plasma” value [5, 15] was 0.17 ± 0.07 mg/L. The “Сmin of AZT in plasma” value [5, 15] was 0.17 ± 0.07 mg/L, the “tmax of AZT” value ([5]; day 1) was 2.7 h and the “tmax of AZT” value ([5]; day 7) was 4 h. The “half-life period (blood plasma)” value ([6]; AZT concentration after oral administration of phosphonate 2) was 3.9 h and the “detection of AZT in organs and tissues (liver, kidneys, spleen, lungs, skeletal muscles, mesentery)” value ([6]; metabolite of phosphonate 2) was “detected in all these organs and tissues”.

In the case of `Cc1cn(C2CC(N=[N+]=[N-])C(CO[PH](=O)[O-])O2)c(=O)[nH]c1=O.[Na+]` (centres unmarked) [Compound 1, sodium salt of AZT 5’-H-phosphonate], the “toxicity as compared to AZT” value (MT-4 cells) is given as “lower”, the therapeutic efficacy (HIV infection; HIV-infected patients receiving HAART) is given as “significant therapeutic efficacy” and the tolerability (HIV infection; adults and children) is given as “well tolerated in both adults and children”. For the same compound, the “therapeutic effect (reduction of viral stress, immunorestoration, decrease in risk of concomitant diseases)” value (HIV infection; clinical practice) was “stable positive therapeutic effect”, the “adverse effects typically observed with AZT (vomiting, nausea, headache, diarrhea, myalgia, anemia, thrombocytopenia, neutrocytopenia)” value (HIV infection; during phosphazide therapy) was “No adverse effects” and the “safety in patients with opportunistic infections” value (HIV infection; patients with tuberculosis and liver pathologies of viral etiology) was “safe for patients with tuberculosis and liver pathologies of viral etiology”. For the same compound, the “penetration of AZT through the placenta” value (HIV; AZT from phosphazide) was “capable of efficiently penetrating the placenta”, the “effect on course of pregnancy, fetal maturity or viability” value (HIV; HIV-infected women) was “does not affect” and the “prevention of vertical transmission of HIV” value (HIV; during pregnancy, combined with Retrovir or Nevirapine during childbirth and postnatal period) was “efficiently prevents vertical transmission of HIV”. For the same compound, the “mean lethal dose (LD50)” value (mice) was 2300 mg/kg, the anti-HIV activity (HIV-1 [7]) was “moderate” and the “selectivity index compared to AZT” value (HIV-1 [7]) was “higher than that of AZT”. For the same compound, the “activity compared to AZT” value (HIV-1 [8]) was “lower than that of AZT by almost an order of magnitude”, the “anti-HIV activity, times higher vs. that of AZT” value (HIV-1 [9]) was 10–20 times and the “selectivity index, times higher than that of AZT” value (IIIB strain of HIV) was 1.5 times. For the same compound, the “selectivity index, times higher than that of AZT” value (HXB2 strain of HIV) was 15 times, the “half-life in 100% human blood serum” value [10] was “over 6 h” and the “Т1/2 in canine whole blood” value [11] was 3 h.
